Measured values from the supplement of paper PMC10331698.
± gives the standard deviation of the averaged measurements.

Assays:
Experiment in all cases: level (log10 ratio to DMSO vehicle control); higher = higher biomarker level / cell amount than vehicle control
Conditions in all cases: in DMSO
[1] = compound: O=S(=O)(O)CCC(F)(F)C(F)(F)C(F)(F)C(F)(F)F [4:2 Fluorotelomer sulfonic acid]
Procedure: (§1)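 BioMAP Diversity Plus panel of 12 human primary cell co-culture systems (3C, 4H, LPS, SAg, BT, BF4T, BE3C, CASM3C, HDF3CGF, KF3CT, MyoF, Mphg). Compounds were added 1 h before stimulation and left for 24 h (MyoF 48 h; BT 72 h for soluble read-outs or 6 d for IgG). Biomarkers were read by ELISA, cytotoxicity by SRB, PBMC viability and proliferation by Alamar Blue. Each well value was divided by the mean of 8 DMSO control wells on the same plate and log10 transformed; duplicate blinded samples were tested at 4 concentrations.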

[2] = compound: O=C(Cl)C(F)(F)C(F)(F)C(F)(F)C(=O)Cl [Hexafluoroglutaryl chloride]
Procedure: as §1

Perfluoropinacol = compound: OC(C(F)(F)F)(C(F)(F)F)C(O)(C(F)(F)F)C(F)(F)F [Perfluoropinacol]
Procedure: as §1

[3] = compound: O=S(=O)(OCC(F)(F)F)C(F)(F)C(F)(F)C(F)(F)C(F)(F)F [2,2,2-Trifluoroethyl perfluorobutanesulfonate]
Procedure: as §1

[4] = compound: O=C(CC(=O)C(F)(F)C(F)(F)C(F)(F)F)c1cccs1 [(Perfluorobutyryl)-2-thenoylmethane]
Procedure: as §1

[5] = compound: C=C(C)C(=O)OCC(F)(F)C(F)(F)C(F)(F)F [2,2,3,3,4,4,4-Heptafluorobutyl methacrylate]
Procedure: as §1

Tetrafluorosuccinic acid = compound: O=C(O)C(F)(F)C(F)(F)C(=O)O [Tetrafluorosuccinic acid]
Procedure: as §1

Row | Test System | level (log10) ([1]; 6700 nM) | level (log10) ([1]; 20000 nM) | level (log10) ([1]; 60000 nM) | level (log10) ([2]; 6700 nM) | level (log10) ([2]; 20000 nM) | level (log10) ([2]; 60000 nM) | level (log10) (Perfluoropinacol; 6700 nM) | level (log10) (Perfluoropinacol; 20000 nM) | level (log10) ([3]; 6700 nM) | level (log10) ([3]; 20000 nM) | level (log10) ([3]; 60000 nM) | level (log10) ([4]; 6700 nM) | level (log10) ([4]; 20000 nM) | level (log10) ([5]; 6700 nM) | level (log10) ([5]; 20000 nM) | level (log10) ([5]; 60000 nM) | level (log10) (Tetrafluorosuccinic acid; 6700 nM) | level (log10) (Tetrafluorosuccinic acid; 20000 nM) | level (log10) (Tetrafluorosuccinic acid; 60000 nM)
1 | BT:sIL-17A | -0.127 ± 0.005 | -0.078 ± 0.2 | -0.116 ± 0.096 | 0.005 ± 0.098 | -0.049 ± 0.18 | 0.0285 ± 0.13 | -0.177 ± 0.11 | -0.642 ± 0.061 | 0.053 ± 0.2 | 0.214 ± 0.093 | 0.184 ± 0.1 | -0.135 ± 0.17 | -0.524 ± 0.047 | -0.0665 ± 0.11 | 0.042 ± 0.065 | 0.0245 ± 0.086 | -0.0215 ± 0.084 | -0.0995 ± 0.00071 | -0.074 ± 0.021
2 | BT:sIL-17F | -0.0025 ± 0.0035 | -0.009 ± 0.13 | 0.077 ± 0.021 | 0.0195 ± 0.09 | -0.095 ± 0.0071 | -0.0065 ± 0.005 | -0.063 ± 0.028 | -0.23 ± 0.033 | 0.003 ± 0.023 | 0.0145 ± 0.0064 | -0.0275 ± 0.005 | -0.114 ± 0.061 | -0.45 ± 0.048 | -0.0825 ± 0.14 | 0.0525 ± 0.083 | 0.0455 ± 0.033 | 0.0105 ± 0.026 | 0.0175 ± 0.043 | -0.0215 ± 0.033
3 | BT:sTNF-alpha | 0.0815 ± 0.16 | -0.063 ± 0.021 | 0.0095 ± 0.012 | 0.0505 ± 0.025 | -0.0155 ± 0.037 | 0.104 ± 0.07 | 0.0425 ± 0.061 | -0.146 ± 0.015 | 0.11 ± 0.076 | 0.165 ± 0.0021 | 0.189 ± 0.026 | -0.0385 ± 0.063 | -0.354 ± 0.13 | 0.0155 ± 0.043 | 0.023 ± 0.058 | 0.0675 ± 0.0092 | -0.0875 ± 0.14 | -0.076 ± 0.13 | -0.0795 ± 0.054
4 | LPS:CCL2/MCP-1 | 0.0065 ± 0.028 | 0.005 ± 0.0042 | 0.037 ± 0.017 | 0.0165 ± 0.005 | 0.008 ± 0.041 | 0.0265 ± 0.033 | 0.0205 ± 0.00071 | -0.103 ± 0.0078 | -0.0345 ± 0.012 | -0.0435 ± 0.022 | -0.101 ± 0.067 | -0.0475 ± 0.0035 | -0.131 ± 0.0057 | 0.0125 ± 0.015 | -0.002 ± 0.0028 | 0.018 ± 0.02 | -0.02 ± 0.0085 | -0.027 ± 0.014 | -0.0095 ± 0.043
5 | LPS:CD40 | 0.0175 ± 0.079 | 0.0505 ± 0.043 | 0.032 ± 0.071 | -0.011 ± 0.057 | 0.0315 ± 0.032 | -0.0375 ± 0.063 | -0.0285 ± 0.073 | -0.16 ± 0.03 | -0.014 ± 0.017 | -0.0495 ± 0.0035 | -0.104 ± 0.064 | -0.0095 ± 0.071 | -0.0805 ± 0.083 | 0.0015 ± 0.037 | 0.024 ± 0.034 | 0.0525 ± 0.012 | -0.016 ± 0.0028 | -0.0185 ± 0.0092 | -0.007 ± 0.014
6 | LPS:CD62E/E-Selectin | 0.027 ± 0.028 | 0.027 ± 0.041 | 0.0285 ± 0.066 | 0.0025 ± 0.0035 | 0.003 ± 0.02 | 0.038 ± 0.031 | 0.003 ± 0.0085 | -0.027 ± 0.028 | 0.0025 ± 0.019 | -0.004 ± 0.02 | -0.0795 ± 0.043 | -0.0755 ± 0.047 | 0.061 ± 0.016 | 0.001 ± 0.0071 | 0.0075 ± 0.026 | -0.0015 ± 0.0035 | 0.0155 ± 0.036 | 0.003 ± 0.011 | 0.0275 ± 0.013
7 | LPS:CD69 | -0.0435 ± 0.052 | -0.0565 ± 0.029 | -0.058 ± 0.028 | 0.0045 ± 0.021 | -0.0195 ± 0.07 | -0.005 ± 0.051 | -0.105 ± 0.063 | -0.192 ± 0.064 | 0.0015 ± 0.15 | 0.001 ± 0.088 | -0.073 ± 0.16 | -0.132 ± 0.0014 | -0.0555 ± 0.07 | -0.019 ± 0.013 | -0.024 ± 0.028 | -0.024 ± 0.011 | -0.0265 ± 0.0035 | -0.0405 ± 0.0092 | -0.029 ± 0.025
8 | LPS:CD106/VCAM-1 | -0.0065 ± 0.013 | -0.006 ± 0.027 | -0.0125 ± 0.059 | -0.0235 ± 0.011 | -0.0135 ± 0.012 | -0.011 ± 0.013 | 0.0045 ± 0.013 | -0.0825 ± 0.015 | 0.0055 ± 0.052 | -0.0075 ± 0.015 | -0.076 ± 0.013 | -0.0045 ± 0.011 | -0.023 ± 0.031 | -0.0175 ± 0.013 | -0.018 ± 0.0085 | -0.02 ± 0.0085 | -0.0245 ± 0.026 | -0.007 ± 0.0057 | 0.002 ± 0.018
9 | LPS:CD141/Thrombomodulin | 0.0215 ± 0.039 | 0.0345 ± 0.044 | 0.0755 ± 0.032 | -0.0035 ± 0.066 | -0.017 ± 0.028 | -0.017 ± 0.021 | -0.106 ± 0.028 | -0.118 ± 0.005 | -0.0075 ± 0.03 | 0.0145 ± 0.04 | 0.067 ± 0.025 | -0.009 ± 0.042 | -0.0665 ± 0.077 | 0.001 ± 0.05 | -0.0015 ± 0.005 | -0.0185 ± 0.019 | 0.019 ± 0.1 | 0.043 ± 0.057 | 0.04 ± 0.047
10 | LPS:CD142/Tissue Factor | -0.051 ± 0.014 | -0.0105 ± 0.016 | -0.0015 ± 0.016 | 0.0275 ± 0.018 | -0.0025 ± 0.044 | -0.0185 ± 0.0035 | -0.0795 ± 0.0035 | -0.038 ± 0.02 | 0.0325 ± 0.12 | -0.069 ± 0.13 | -0.153 ± 0.13 | -0.004 ± 0.093 | 0.323 ± 0.0028 | -0.0225 ± 0.026 | -0.013 ± 0.025 | 0.02 ± 0.0057 | -0.001 ± 0.047 | -0.0155 ± 0.079 | 0.014 ± 0.037
11 | LPS:CXCL8/IL-8 | -0.0015 ± 0.097 | 0.027 ± 0.054 | 0.111 ± 0.018 | -0.0295 ± 0.00071 | 0 ± 0.037 | -0.0035 ± 0.043 | -0.003 ± 0.0028 | -0.0315 ± 0.0021 | -0.004 ± 0.034 | -0.002 ± 0.0099 | -0.0205 ± 0.026 | -0.0595 ± 0.032 | -0.033 ± 0.047 | -0.001 ± 0.016 | 0.0055 ± 0.012 | 0.0145 ± 0.0092 | -0.0065 ± 0.00071 | -0.003 ± 0.016 | 0.009 ± 0.02
12 | LPS:IL-1alpha | -0.007 ± 0.035 | -0.001 ± 0.03 | 0.0035 ± 0.018 | -0.0955 ± 0.022 | -0.115 ± 0.015 | -0.057 ± 0.027 | 0.0305 ± 0.011 | 0.041 ± 0.0014 | -0.061 ± 0.079 | -0.104 ± 0.041 | -0.172 ± 0.052 | -0.069 ± 0.034 | 0.109 ± 0.016 | -0.04 ± 0.0057 | -0.0105 ± 0.011 | 0.042 ± 0.0014 | -0.0215 ± 0.021 | -0.0175 ± 0.0092 | -0.0015 ± 0.013
13 | LPS:M-CSF | -0.0265 ± 0.049 | 0.017 ± 0.0071 | 0.0025 ± 0.005 | -0.014 ± 0.05 | 0.001 ± 0.0085 | -0.0105 ± 0.005 | 0.0135 ± 0.015 | -0.1085 ± 0.00071 | -0.01 ± 0.016 | -0.046 ± 0.02 | -0.09 ± 0.0085 | 0.004 ± 0.085 | -0.046 ± 0.072 | 0.0125 ± 0.042 | 0.007 ± 0.035 | 0.0165 ± 0.023 | -0.0255 ± 0.0078 | -0.018 ± 0.014 | 0.0335 ± 0.047
14 | LPS:SRB | -0.0085 ± 0.0021 | -0.003 ± 0.0085 | -0.011 ± 0.018 | -0.0075 ± 0.0064 | 0.0015 ± 0.012 | 0.003 ± 0.0014 | -0.0265 ± 0.0021 | -0.151 ± 0.0064 | 0.007 ± 0.0014 | -0.0035 ± 0.0092 | -0.004 ± 0.0071 | -0.015 ± 0.014 | -0.117 ± 0.019 | -0.012 ± 0.0014 | -0.0075 ± 0.0021 | 0.002 ± 0.0042 | -0.0055 ± 0.013 | -0.008 ± 0.0014 | -0.017 ± 0.0042
15 | LPS:sPGE2 | -0.035 ± 0.078 | 0.025 ± 0.064 | 0.026 ± 0.0028 | -0.011 ± 0.018 | -0.0375 ± 0.026 | -0.056 ± 0.03 | 0.086 ± 0.038 | 0.182 ± 0.015 | 0.049 ± 0.02 | -0.006 ± 0.038 | -0.024 ± 0.018 | -0.066 ± 0.052 | 0.0635 ± 0.0064 | 0.05 ± 0.042 | -0.009 ± 0.024 | 0.076 ± 0.014 | 0.0125 ± 0.032 | -0.002 ± 0.047 | 0.054 ± 0.031
16 | LPS:sTNF-alpha | -0.0105 ± 0.011 | -0.007 ± 0.0014 | -0.0065 ± 0.0035 | 0.046 ± 0.023 | 0.033 ± 0.0085 | 0.0465 ± 0.012 | -0.0005 ± 0.025 | 0.008 ± 0.03 | -0.0075 ± 0.043 | -0.0745 ± 0.076 | -0.225 ± 0.018 | 0.0225 ± 0.036 | 0.119 ± 0.029 | 0.005 ± 0.0057 | 0.018 ± 0.052 | 0.0415 ± 0.0092 | -0.0025 ± 0.018 | 0.0025 ± 0.011 | 0.009 ± 0.011
